In paper PMC10568017, “A quest for the stereo-electronic requirements for selective agonism for the neurotrophin receptors TrkA and TrkB in 17-spirocyclic-dehydroepiandrosterone derivatives” (Frontiers in Molecular Neuroscience, 2023):

Assays:
[1] = murine models; ref Bennett et al., 2016; Tsika et al., 2021; cited from earlier work
[2] = test system: NIH-3T3 TrkB-expressing cell line; test: CellTox Green cytotoxicity assay in NIH-3T3 cells stable transfected with TrkB under serum deprivation; format: cell-based; details: compound 1 μM, 24 h, after 24 h serum starvation; BDNF 500 ng/mL as control
Description: (§1) We tested compounds on three cellular systems, primary cortical astrocytes from 2-day-old mice (as a natively TrkB-expressing neuronal population), and NIH-3T3 fibroblasts stable transfected with TrkB and NIH-3T3 naïve cells. Cells were grown with high-glucose DMEM medium supplemented with 10% fetal bovine serum (FBS), 100 μg/mL streptomycin, and 100 units/mL penicillin at 37°C in a humidified 5% CO2 atmosphere. Phosphorylation results presented here are in primary astrocytes, and cell toxicity assay results are in NIH-3T3 stable transfected cells with TrkB.
NIH-3T3 stable transfected cells with TrkB were plated in 96-well plates at a density of 10,000 cells/well, before carrying out serum starvation for 24 h. Cells were then treated for 24 h with either BDNF at 500 ng/mL (control) or the compounds at 1 μM.
For the cell toxicity assay, we used CellTox™ Green Dye (2,000 × , Promega) for the visualization of dead cells and Hoechst 33,342 solution (10,000 × ) for total cells. A ZEISS Axio Vert.A1 microscope was used for image capture, and the ImageJ software (https://imagej.nih.gov/ij/) was used for analysis. The number of CellTox positive cells was normalized against the total number of cells observed in each image.
The NIH-3T3 TrkB cell line, which is stable and transfected to specifically express the TrkB receptor, was used for the screening of the new compounds for their ability to protect cells from serum deprivation-induced apoptosis through the activation of the TrkB receptor. Cell death was induced by serum deprivation for 24 h and then BDNF (500 ng/mL), the native neurotrophin ligand of the TrkB receptor, or compounds ENT-A007, ENT-A009, ENTA025, ENT-A026, ENT-A033, ENT-A034, ENT-A035, ENT-A036, ENT-A037, ENT-A046, ENT-A047, ENT-A055, and ENT-A056 (1 μM) were added to the media for 24 h.

[3] = target: T1, TrkB (Mus musculus, UniProt P15209); test: TrkB phosphorylation assay in primary astrocytes (Western blot); format: cell-based; details: compound 1 μM, 20 min, after 6 h serum starvation, BDNF 500 ng/mL as control
T1 construct: primary cortical astrocytes from 2-day-old mice (as a natively TrkB-expressing neuronal population); endogenous in cells; host or cells: primary cortical astrocytes from C57B/6 mouse pups (P2)
Description: as §1
Cells were plated in 12 well plates, at a density of 100,000 cells per well, with 6 h of serum deprivation carried out on the following day. To assess the effect of compounds on TrkB phosphorylation, 20-min treatments were applied, using either BDNF at 500 ng/mL (Peprotech 450-02) (positive control) or compounds at 1 μM.
Cell lysis for 10 min was carried out on ice using the Pierce IP Lysis Buffer by Thermo Scientific and a phospho-protease inhibitor cocktail by Millipore. After adding loading buffer (5 × Laemni), 25 μg from each protein sample were incubated for 5 min at 95°C and subjected to SDS-PAGE. Proteins were transferred to a nitrocellulose membrane at 350 mA for 2 h. Membrane blocking was performed using 5% bovine serum albumin (BSA) at room temperature for 1 h, before adding the primary antibodies to the blocking solution at 4°C overnight. HRP-conjugated secondary antibodies were used for the detection of chemiluminescence with ECL solution. Primary antibodies: Phospho-TrkB (Tyr816) Millipore # ABN1381, and Anti-TrkB Abcam #ab33655.
Mixed glial cultures were isolated from the cortex of C57B/6 pups at post-natal day 2 (P2). Cells were plated in a medium containing high-glucose DMEM, 200 U/mL penicillin, 200 μg/mL streptomycin, and 10% fetal bovine serum (FBS). When cells reach 100% confluency (7–8 days), the anti-mitotic agent Ara-C was added in the media at a final concentration of 10 μM, for 3 to 4 days to target the highly proliferative microglial cells. Ara-C was removed, and primary astrocytes (97% purity) were cultured at 5% CO2 and 37°C.
Cells were plated at 70–80% confluency. The next day, they were deprived of serum for 6 h and subsequently treated with 500 ng/mL BDNF or 1 μM of compounds for 20 min. Cells were then lysed in Pierce™ IP Lysis Buffer (87788, Thermo Fischer Scientific, Rockford, USA), containing proteases (539138, Calbiochem, Darmstadt, Germany), and phosphatase inhibitors (524629, Calbiochem, Darmstadt, Germany). Lysates were then suspended in an SDS loading buffer and subjected to Western blot against phosphorylated TrkB (1:1,000, ABN1381, Sigma-Aldrich, St. Louis, MO, USA) and total TrkB (1:1,000, 07-225-I, Sigma-Aldrich, St. Louis, MO, USA).

[4] = target: T2, CYP2C9 (Homo sapiens, UniProt P11712); test: Isozyme-specific CYP450 inhibition, CYP2C9; format: in vitro ADME; details: 1 μM, 60 min, recombinant human CYP450 (Baculosomes)
T2 construct: purchased Thermo Fisher Scientific; host or cells: Baculosomes
Description: Human cytochrome P450 (CYP450) isoenzymes were expressed in Baculosomes®, purchased from Thermo Fisher Scientific (Waltham, MA, USA). All reagents were handled and prepared according to the manufacturer's protocol. Test compounds were assessed at 1 μM for their effects on CYP1A2, CYP2A6, CYP2C9, CYP2C19, CYP2D6, and CYP3A4. Approximately 1 μM was selected based on our ADMET standard operating procedures and protocols also published previously (Rogdakis et al., [2022]; Yilmaz et al., [2022]). CYP450-enzymatic activity was determined based on the kinetic model for each CYP450 isoform (Cohen et al., [2003]; Veith et al., [2009]). Reactions took place in triplicates at 20°C. For this, NADP^+ (10 mM in 100 mM potassium phosphate, pH 8.0) was converted into NADPH by the regeneration system present (glucose-6-phosphate at 333 mM and glucose-6-phosphate-dehydrogenase at 30 U/mL in 100 mM potassium phosphate, pH 8.0). Following the addition of the fluorescent substrate, signal monitoring over time took place immediately (<2 min) at suitable excitation and emission wavelengths (Agilent BioTek Lionheart FX). CYP450 inhibition (%) was determined based on the reaction rates (fluorescence intensity changes per unit time). In total, n = 60 measurements […] were acquired (t = 60 min).
% Inhibition=(1-X/A)×100%
X is the rate observed in the presence of the test compound.
A is the rate observed in the presence of the negative (solvent, DMSO) control.

[5] = test system: PC12 cells; test: CellTox assay, survival of PC12 cells under serum deprivation; format: cell-based; details: compound 500 nM, 24 h, after 4 h serum starvation; NGF 100 ng/mL as control (Figure 9)
Description: (§2) PC12 cells were obtained from LGC Promochem and cultured under specified conditions. Cells were grown in DMEM medium (Thermo Fischer Scientific, cat# 10566016) containing 10% horse serum (Thermo Fischer Scientific, cat# 16050122), 5% fetal bovine serum (Thermo Fischer Scientific, cat# 10270106), 100 units/mL penicillin, and 0.1 mg/mL streptomycin (Thermo Fischer Scientific, cat# 15140122) at 5% CO2 and 37°C. Cells were used between passages 5 and 20.
CellTox assay (G8742, Promega, Leiden, Belgium) was used to assess the survival of PC12 cells under serum deprivation conditions. PC12 cells were plated in 96-well plates, starved from serum for 4 h, and subsequently treated with NGF (100 ng/mL) or compound (500 nM) for 24 h. CellTox assay reagents and Hoescht (1:10,000, H3570, Invitrogen, Massachusetts, USA) were then added to each well for 30 min, and then, cells were imaged with a Zeiss AXIO Vert A1 fluorescent microscope. CellTox positive cells were normalized to the total number of cells for each image.
Initially, we tested compounds ENT-A002, ENT-A007, ENT-A009, ENTA025, ENT-A026, ENT-A033, ENT-A034, ENT-A035, ENT-A036, ENT-A037, ENT-A046, ENT-A047, ENT-A055, and ENT-A056 for their ability to protect PC12 cells from serum deprivation-induced cell death as well as for their ability to activate TrkA downstream pro-survival signaling kinases Akt and Erk1/2 (Figures 9A–C). We opted to employ PC12 cells, which express receptors TrkA and p75 and have been routinely used for investigating NGF-TrkA signaling. PC12 cells were subjected to a period of nutrient deprivation (without fetal bovine serum and horse serum in their culture medium) for 4 h. Following this, NGF (100 ng/mL) or one of the compounds (500 nM or 1 μM) was administered and allowed to interact with the cells for 24 h. Following that, CellTox and Hoescht dyes were added and cells were imaged to assess cell death. Control cases involved cells cultured in full medium (serum), cells under starvation conditions (serum-free), and cells under starvation conditions treated with DMSO (SF+DMSO).

[6] = target: T3, TrkA (Rattus norvegicus, UniProt P35739); test: TrkA phosphorylation in PC12 cells (immunoprecipitation / Western blot); format: cell-based; details: compound 500 nM, 30 min, NGF 100 ng/mL as control
T3 construct: PC12 cells, which express receptors TrkA and p75; endogenous in cells; host or cells: PC12 cells
Description: as §2
For immunoprecipitation experiments, PC12 cells were used when they were at 70–80% confluent. Cells were starved from serum for 4 h and subsequently treated with 100 ng/mL NGF (Alomone Labs, cat# N-100) or 500 nM of each compound for 30 min. Cells were then lysed in Pierce™ IP Lysis Buffer (Thermo Fischer Scientific, cat# 87787) containing proteases (Sigma-Aldrich, cat# 539131) and phosphatase inhibitors (Millipore, cat# 524629). Lysates were then immunoprecipitated overnight at 4°C with TrkA antibody (1:100, Millipore, cat# 06-574) followed by 4 h incubation with protein G-plus agarose beads (Santa Cruz Biotechnology, cat# sc-2002). Beads were then collected, washed three times with lysis buffer, resuspended in SDS loading buffer, and subjected to Western blot against phosphorylated Tyrosine (1:1000, R&D systems, cat# BAM1676). […]

[7] = test system: Erk1/2; test: Erk1/2 phosphorylation in PC12 cells (Western blot); format: cell-based; details: compound 500 nM, 30 min, NGF 100 ng/mL as control
[8] = Metabolic stability in pooled human liver microsomes; format: in vitro ADME; details: 1 μM
Description: For metabolic stability assessment, pooled human liver microsomes were employed at 0.5 mg/mL. Incubation conditions were optimized to ensure linear metabolite formation with respect to protein concentration and reaction time. All test compounds were assessed at 1 μM based on our ADMET standard operating procedures and protocols, also published previously (1 μM was selected based on our ADMET standard operating procedures and protocols also published previously) (Rogdakis et al., [2022]; Yilmaz et al., [2022]). Approximately 1 mM of NADPH served as a cofactor. Reactions took place in triplicates at 37°C. Negative and positive controls (low vs. rapid clearance) were included for low vs. rapid clearance. After 60 min, reactions were terminated.
Parent structure loss is classified as very slow (<5%), slow (5–19%), moderate (20–50%), fast (50–80%), or very fast (>80%). Such categories have been defined according to set criteria, namely, high metabolism (t1/2 value of <30 min), moderate metabolism (30 min <t1/2 value of <60 min), and low metabolism (t1/2 value of >60 min) (EMA, [2012], [2013]; FDA, [2020]).

T2 sequence (P11712 whole entry): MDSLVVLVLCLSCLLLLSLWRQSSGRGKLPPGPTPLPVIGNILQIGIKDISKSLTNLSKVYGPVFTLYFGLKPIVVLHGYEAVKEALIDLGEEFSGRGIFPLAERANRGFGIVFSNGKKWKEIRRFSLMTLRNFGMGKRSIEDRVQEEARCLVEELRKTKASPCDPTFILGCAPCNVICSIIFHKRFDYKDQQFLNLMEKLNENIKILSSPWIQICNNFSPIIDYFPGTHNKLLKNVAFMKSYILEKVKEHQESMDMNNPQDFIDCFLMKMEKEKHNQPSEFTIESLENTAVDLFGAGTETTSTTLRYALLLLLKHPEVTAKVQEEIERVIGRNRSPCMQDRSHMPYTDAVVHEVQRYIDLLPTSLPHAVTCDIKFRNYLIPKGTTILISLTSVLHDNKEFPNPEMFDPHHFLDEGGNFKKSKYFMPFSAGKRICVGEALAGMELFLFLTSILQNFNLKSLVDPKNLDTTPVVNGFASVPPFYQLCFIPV
T3 sequence (P35739 33-799): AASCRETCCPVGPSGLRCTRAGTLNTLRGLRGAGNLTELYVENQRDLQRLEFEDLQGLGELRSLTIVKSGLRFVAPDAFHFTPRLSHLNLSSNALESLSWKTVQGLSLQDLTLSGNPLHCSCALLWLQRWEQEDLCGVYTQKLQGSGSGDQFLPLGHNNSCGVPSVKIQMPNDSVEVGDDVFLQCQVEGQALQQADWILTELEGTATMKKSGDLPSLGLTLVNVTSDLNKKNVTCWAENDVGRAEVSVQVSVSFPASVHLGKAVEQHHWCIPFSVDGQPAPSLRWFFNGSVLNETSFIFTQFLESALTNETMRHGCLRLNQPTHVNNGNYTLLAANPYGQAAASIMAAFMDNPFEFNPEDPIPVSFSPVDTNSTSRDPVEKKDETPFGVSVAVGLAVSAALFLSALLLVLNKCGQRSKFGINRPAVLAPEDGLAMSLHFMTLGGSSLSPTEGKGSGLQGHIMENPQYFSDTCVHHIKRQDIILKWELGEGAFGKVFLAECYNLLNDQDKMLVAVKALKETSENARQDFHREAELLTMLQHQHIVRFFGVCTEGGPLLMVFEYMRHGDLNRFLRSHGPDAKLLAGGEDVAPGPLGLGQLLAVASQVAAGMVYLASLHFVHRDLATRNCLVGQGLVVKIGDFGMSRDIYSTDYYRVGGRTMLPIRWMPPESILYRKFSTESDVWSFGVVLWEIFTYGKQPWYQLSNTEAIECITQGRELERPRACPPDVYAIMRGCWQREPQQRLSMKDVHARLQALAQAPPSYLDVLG
T1 sequence (P15209 32-821): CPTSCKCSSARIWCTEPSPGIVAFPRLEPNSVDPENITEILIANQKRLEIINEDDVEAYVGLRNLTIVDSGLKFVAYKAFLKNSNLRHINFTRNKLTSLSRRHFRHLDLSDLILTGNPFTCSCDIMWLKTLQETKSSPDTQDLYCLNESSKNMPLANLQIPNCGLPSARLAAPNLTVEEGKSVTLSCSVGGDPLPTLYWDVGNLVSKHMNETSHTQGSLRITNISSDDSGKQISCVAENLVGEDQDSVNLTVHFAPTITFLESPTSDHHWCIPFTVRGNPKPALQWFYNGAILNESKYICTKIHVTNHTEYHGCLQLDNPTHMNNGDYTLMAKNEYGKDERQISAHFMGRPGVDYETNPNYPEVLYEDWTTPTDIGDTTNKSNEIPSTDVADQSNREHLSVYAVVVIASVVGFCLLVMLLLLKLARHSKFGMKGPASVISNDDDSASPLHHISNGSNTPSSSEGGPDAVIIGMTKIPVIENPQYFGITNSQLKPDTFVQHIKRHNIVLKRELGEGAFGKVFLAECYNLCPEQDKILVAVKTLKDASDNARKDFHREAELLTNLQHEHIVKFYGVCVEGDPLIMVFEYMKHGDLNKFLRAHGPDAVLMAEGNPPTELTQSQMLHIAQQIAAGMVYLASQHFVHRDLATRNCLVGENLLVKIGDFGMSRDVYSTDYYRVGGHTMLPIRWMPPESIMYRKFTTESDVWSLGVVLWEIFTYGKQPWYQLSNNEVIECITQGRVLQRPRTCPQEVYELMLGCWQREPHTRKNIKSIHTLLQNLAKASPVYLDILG

Row | SMILES | elimination constant (Kel) [1] | protection of NIH-3T3-TrkB cells from serum deprivation-induced cell death (CellTox) [2] | phosphorylation levels of the TrkB receptor [3] | inhibition for CYP2C9 [4] | protection of PC12 cells from serum deprivation-induced cell death (CellTox) [5] | TrkA phosphorylation [6] | Erk1/2 phosphorylation [7] | residual of time zero ([8]; pooled human liver microsomes 0.5 mg/mL, t = 60 min, NADPH) | parent structure loss (depletion) class ([8]; pooled human liver microsomes, 60 min)
1 | CC12CCC(O)CC1=CCC1C2CCC2(C)C1CCC21OC1CO (stereo not shown) [BNN27] | 0.465 h⁻¹ |  |  |  |  |  |  |  | 
2 | CC12CCC(O)CC1=CCC1C2CCC2(C)C1CCC21CC=C(C=CC#N)CO1 [ENT-A009, (E)-(3S,17R)-3-hydroxy-3′,6′-dihydrospiro[5-androstene-17,2′-pyran]-5′-acrylonitrile] |  | significantly reduce cell death levels compared to the serum-free control, comparable to the BDNF action | successfully increased phosphorylation levels of the TrkB receptor compared to the untreated control | moderate-to-strong inhibition |  |  |  |  | 
3 | CC12CCC(O)CC1=CCC1C2CCC2(C)C1CCC21CC=C(CCl)CO1 [ENT-A025, (3S,17R)-5′-(chloromethyl)-3′,6′-dihydrospiro[5-androstene-17,2′-pyran]-3-ol] |  | cannot protect NIH3T3-TrkB cells from serum deprivation |  |  | protect PC12 cells against serum deprivation-induced cell death | strongly induce TrkA and Erk1/2 phosphorylation, comparable to NGF action | strongly induce TrkA and Erk1/2 phosphorylation, comparable to NGF action | 92% | slow (slow (5–19%))
